We go through 18 compounds from ChEMBL document CHEMBL4359820, “Enrichment of novel quinazoline derivatives with high antitumor activity in mitochondria tracked by its self-fluorescence” (Eur J Med Chem, 2019).

In general, inhibition refers to the drop in the measured response relative to a control, in per cent. One may read the IC50 as the concentration that gives 50% inhibition. A high value points to a need for much substance.

Activity calls are given as the source filed them. The rule behind the calls is not given here.

In data set [1] the target is Epidermal growth factor receptor (Homo sapiens) (UniProt P00533). Conditions: HEK293, at 50 nM.
Chain of Epidermal growth factor receptor (Homo sapiens) (P00533 whole entry): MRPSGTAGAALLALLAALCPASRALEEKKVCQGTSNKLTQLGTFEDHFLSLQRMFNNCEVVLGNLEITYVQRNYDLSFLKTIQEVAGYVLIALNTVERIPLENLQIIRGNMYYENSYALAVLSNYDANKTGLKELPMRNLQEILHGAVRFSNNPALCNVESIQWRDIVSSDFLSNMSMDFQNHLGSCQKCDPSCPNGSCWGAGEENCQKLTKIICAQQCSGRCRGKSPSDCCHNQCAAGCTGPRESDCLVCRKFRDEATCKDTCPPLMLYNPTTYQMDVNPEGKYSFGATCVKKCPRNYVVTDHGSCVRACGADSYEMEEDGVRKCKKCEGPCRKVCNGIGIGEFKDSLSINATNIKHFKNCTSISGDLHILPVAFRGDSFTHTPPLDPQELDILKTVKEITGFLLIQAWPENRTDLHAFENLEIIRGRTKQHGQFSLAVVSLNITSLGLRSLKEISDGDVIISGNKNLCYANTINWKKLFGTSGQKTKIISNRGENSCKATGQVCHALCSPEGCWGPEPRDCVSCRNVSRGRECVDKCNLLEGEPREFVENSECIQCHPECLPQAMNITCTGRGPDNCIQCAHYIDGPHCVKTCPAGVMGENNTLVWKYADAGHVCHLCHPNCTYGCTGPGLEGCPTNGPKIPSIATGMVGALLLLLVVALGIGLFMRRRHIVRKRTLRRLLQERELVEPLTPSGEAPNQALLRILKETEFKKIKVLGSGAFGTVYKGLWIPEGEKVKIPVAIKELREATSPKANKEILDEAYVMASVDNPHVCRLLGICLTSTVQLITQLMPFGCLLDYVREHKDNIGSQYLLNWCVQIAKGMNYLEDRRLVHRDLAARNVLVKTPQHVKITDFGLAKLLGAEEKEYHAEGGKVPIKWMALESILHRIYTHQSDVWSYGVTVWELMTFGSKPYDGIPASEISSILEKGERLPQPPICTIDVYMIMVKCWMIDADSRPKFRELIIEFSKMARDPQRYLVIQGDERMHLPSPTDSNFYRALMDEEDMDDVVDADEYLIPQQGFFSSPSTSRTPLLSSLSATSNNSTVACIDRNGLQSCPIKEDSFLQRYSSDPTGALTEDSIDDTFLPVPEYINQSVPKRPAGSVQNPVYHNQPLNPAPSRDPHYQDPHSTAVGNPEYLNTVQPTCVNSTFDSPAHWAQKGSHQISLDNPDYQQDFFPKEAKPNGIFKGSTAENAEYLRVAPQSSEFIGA
Description: Inhibition of human recombinant His-tagged wild type EGFR expressed in HEK293 cells at 50 nM using poly[Glu:Tyr] (4:1) as substrate incubated for 60 mins by ELISA relative to control
Data set [2] can be described thus: Drug localization in lysosome of human A549 cells at 5 uM incubated for 30 mins by Lysotracker red staining based confocal microscopic method. It is filed as ADME, subcellular. To be noted: a549, 0.5 h.
Data set [3] deals with Epidermal growth factor receptor (Homo sapiens) (UniProt P00533). As to the kind of experiment: Inhibition of EGF-induced EGFR phosphorylation at Y1068 in human A431 cells at 0.2 to 5 uM preincubated for 2 hrs followed by EGF treatment and measured after 10 mins by Western blot analysis. It is filed as cell-based. On the technique in general: Immunoblotting shows a protein as a band on a membrane.

Data set [4] has the same target. Kind of data set: Inhibition of EGF-induced EGFR phosphorylation at Y1068 in human A549 cells at 0.4 to 10 uM preincubated for 2 hrs followed by EGF treatment and measured after 10 mins by Western blot analysis. It is filed as cell-based.
Data set [5] shares this target. Kind of data set: Inhibition of EGF-induced EGFR phosphorylation at Y992 in human A431 cells at 0.2 to 5 uM preincubated for 2 hrs followed by EGF treatment and measured after 10 mins by Western blot analysis. It is filed as cell-based.
Data set [6] shares this target. As to the kind of experiment: Inhibition of EGF-induced EGFR phosphorylation at Tyr-residue in human A431 cells at 0.2 to 5 uM preincubated for 2 hrs followed by EGF treatment and measured after 10 mins by Western blot analysis. It is filed as cell-based.
Data set [7] can be described thus: Drug uptake in human A549 cells at 1 uM incubated for 2 hrs by FACS analysis (reference value: 0%). To be noted: a549, 2 h. Format: ADME, cell-based. On the technique in general: Flow cytometry measures light scatter and fluorescence of single cells or particles in a stream.
Data set [8] can be described thus: Drug uptake in human A549 cells at 25 uM incubated for 2 hrs by FACS analysis (reference value: 0%). Format: ADME, cell-based. Conditions: a549, 2 h.
Data set [9] concerns the target Epidermal growth factor receptor (Homo sapiens) (UniProt P00533). As to the kind of experiment: Inhibition of EGF-induced EGFR phosphorylation at Tyr-residue in human A549 cells at 0.4 to 10 uM preincubated for 2 hrs followed by EGF treatment and measured after 10 mins by Western blot analysis. Format: cell-based.
Data set [10] in a line: Drug uptake in human A549 cells at 5 uM incubated for 2 hrs by FACS analysis (reference value: 0%). Format: ADME, cell-based. Conditions: a549, 2 h.
Data set [11] in a line: Drug localization in mitochondria of human A549 cells at 5 uM incubated for 30 mins by Mitotracker red staining based confocal microscopic method. Conditions: a549, 0.5 h. Format: ADME.
Data set [12] can be described thus: Drug uptake in human A549 cells at 5 uM incubated for 2 hrs by fluorescence microscopic method. It is filed as ADME, cell-based. Conditions: a549, 2 h.
For data set [13], the target named is Epidermal growth factor receptor (Homo sapiens) (UniProt P00533). As to the kind of experiment: Inhibition of EGF-induced EGFR phosphorylation at Y992 in human A549 cells at 0.4 to 10 uM preincubated for 2 hrs followed by EGF treatment and measured after 10 mins by Western blot analysis. It is filed as cell-based.
Data set [14] is described as follows: Drug uptake in human A549 cells incubated for 2 hrs by FACS analysis. It is filed as ADME, cell-based. Conditions: a549, 2 h.
Data set [15] in a line: Drug localization in mitochondria of human A549 cells at 5 uM incubated for 30 mins by Mitotracker green staining based confocal microscopic method. Format: ADME. Conditions: a549, 0.5 h.
Data set [16] has as its system A549. Kind of data set: Induction of cell cycle arrest in human A549 cells assessed as accumulation at S phase at 15 uM incubated for 48 hrs by PI staining based flow cytometric analysis (reference value: 33.67%). It is filed as functional.
Data set [17] has as its system A549. Kind of data set: Inhibition of cell migration in CM-dil-labelled human A549 cells xenografted in 48 hrs post-fertilization zebrafish embryos at 15 uM incubated for 48 hrs by confocal microscopic method. Format: functional, cell-based. In general terms: In xenograft studies the graft and the host belong to different species.
Data set [18] has as its system HCC827. It is filed as functional, cell-based. Conditions: Homo sapiens, HCC827, 72 h.
Data set [19] concerns A549. As to the kind of experiment: Induction of cell cycle arrest in human A549 cells assessed as accumulation at G2/M phase at 15 uM incubated for 48 hrs by PI staining based flow cytometric analysis (reference value: 14.36%). It is filed as functional.
For data set [20], the system named is A549. Format: functional, cell-based. To be noted: Homo sapiens, A549, 72 h.
For data set [21], the system named is A549. As to the kind of experiment: Induction of cell cycle arrest in human A549 cells assessed as accumulation at G0/G1 phase at 15 uM incubated for 48 hrs by PI staining based flow cytometric analysis (reference value: 51.73%). It is filed as functional.
The test system of data set [22] is SW480. Format: functional, cell-based. Conditions: Homo sapiens, SW480, 72 h.
Data set [23] deals with A-431. As to the kind of experiment: cells. Conditions: Homo sapiens, A-431, 72 h.
Description: Antiproliferative activity against human A431 cells incubated for 72 hrs by MTT assay
Data set [24] deals with NCI-H1975. It is filed as functional, cell-based. To be noted: Homo sapiens, NCI-H1975, 72 h.
In data set [25] the test system is A549. Kind of data set: Induction of apoptosis in human A549 cells assessed as early apoptotic cells at 20 uM incubated for 48 hrs by annexin V -FITC and PI staining based flow cytometric analysis (reference value: 2.93%). It is filed as functional.
The test system of data set [26] is A549. As to the kind of experiment: Induction of apoptosis in human A549 cells assessed as late apoptotic cells at 20 uM incubated for 48 hrs by annexin V -FITC and PI staining based flow cytometric analysis (reference value: 2.24%). It is filed as functional.
The test system of data set [27] is A549. Kind of data set: Induction of cell cycle arrest in human A549 cells assessed as accumulation at S phase at 20 uM incubated for 48 hrs by PI staining based flow cytometric analysis (reference value: 33.67%). Format: functional.
In data set [28] the test system is A549. As to the kind of experiment: Induction of cell cycle arrest in human A549 cells assessed as accumulation at G2/M phase at 20 uM incubated for 48 hrs by PI staining based flow cytometric analysis (reference value: 14.36%). It is filed as functional.
Data set [29] deals with A549. As to the kind of experiment: Induction of cell cycle arrest in human A549 cells assessed as accumulation at G0/G1 phase at 20 uM incubated for 48 hrs by PI staining based flow cytometric analysis (reference value: 51.73%). It is filed as functional.
For data set [30], the system named is A549. As to the kind of experiment: Induction of apoptosis in human A549 cells assessed as necrotic cells at 20 uM incubated for 48 hrs by annexin V -FITC and PI staining based flow cytometric analysis (reference value: 0.27%). Format: functional.
Data set [31] concerns A549. As to the kind of experiment: Induction of apoptosis in human A549 cells assessed as viable cells at 20 uM incubated for 48 hrs by annexin V -FITC and PI staining based flow cytometric analysis (reference value: 94.56%). It is filed as functional. Conditions: A549, 48 h, read-out: Activity.

In turn, `Fc1ccc(Nc2ncnc3cc(N4CCNCC4)c(F)cc23)cc1Cl` had an inhibition in data set [1] of under 20%.
On the same count and under the same terms, with `C#Cc1cccc(Nc2ncnc3cc(N4CCNCC4)c(F)cc23)c1` the figure was under 20%.
`Fc1cccc(COc2ccc(Nc3ncnc4cc(N5CCNCC5)c(F)cc34)cc2Cl)c1`: the Drug uptake result in [2] was “Active”; in [7], 74.03%; in data set [8] it was 100%; in data set [10], 99.95%; in [11], “Active”; in data set [12] it was “Active”. For the same compound, the Drug uptake entry in data set [14] is given as “Dose-dependent effect”; in [15], “Active”. The inhibition result in [3], in data set [4], in data set [5], in data set [6], in data set [9] and in data set [13] was “inactive” each time. The same compound yielded an inhibition in data set [1] of under 20%.
As for `CS(=O)(=O)CCNCc1ccc(-c2ccc3ncnc(Nc4ccc(OCc5cccc(F)c5)c(Cl)c4)c3c2)o1` [LAPATINIB], the Activity in data set [16] is reported as 22.35%; in data set [19], 7.66%; in data set [21], 69.72%. The inhibition entry in data set [17] is “Active”. Moreover, the half-maximal inhibitory concentration (IC50) was determined as 0.6 µM in data set [18] and 14.9 µM in data set [20].
Compound `C#Cc1cccc(Nc2ncnc3cc(N4CCN(CCN(CC)CC)CC4)c(F)cc23)c1` returned an inhibition in [1] of under 20%.
Same read-out and setting: then `C/C=C/c1ccc(Nc2ncnc3cc(N4CCN(CCN(CC)CC)CC4)c(F)cc23)cc1`, with under 20%.
For the compound `COCCN1CCN(c2cc3ncnc(Nc4ccc(F)c(Cl)c4)c3cc2F)CC1`, the half-maximal inhibitory concentration (IC50) in data set [22] came to 16.4 µM; in data set [23], 12.6 µM; in [24], 49.8 µM; in [20], 14.4 µM.
With `C/C=C/c1ccc(Nc2ncnc3cc(N4CCN(CCOC)CC4)c(F)cc23)cc1`, the IC50 in data set [22] was over 100 µM; in data set [23] it was 49.2 µM; in data set [24], over 100 µM; in data set [20], over 100 µM.
As for `C#Cc1cccc(Nc2ncnc3cc(N4CCN(CCOC)CC4)c(F)cc23)c1`, the IC50 came to 19 µM in [22], 12.8 µM in data set [23], 68.1 µM in data set [24] and 19.2 µM in [20].
With `COCCN1CCN(c2cc3ncnc(Nc4ccc(OCc5cccc(F)c5)c(Cl)c4)c3cc2F)CC1`, the IC50 in data set [22], in [23], in data set [24] and in data set [20] was over 100 µM throughout.
For `C#Cc1cccc(Nc2ncnc3cc(N4CCOCC4)c(F)cc23)c1`, the half-inhibitory concentration (IC50) in data set [22], in data set [23], in [24] and in data set [20] was over 100 µM in each case.
In turn, `CCN(CC)CCN1CCN(c2cc3ncnc(Nc4ccc(OCc5cccc(F)c5)c(Cl)c4)c3cc2F)CC1` displayed an inhibition in data set [1] of over 20%.
`CCN(CC)CCN1CCN(c2cc3ncnc(Nc4ccc(F)c(Cl)c4)c3cc2F)CC1` came in with an inhibition in data set [1] of under 20%.
In the case of `C/C=C/c1ccc(Nc2ncnc3cc(N4CCNCC4)c(F)cc23)cc1`, in [1], the inhibition is under 20%.
As to `C/C=C/c1ccc(Nc2ncnc3cc(N4CCOCC4)c(F)cc23)cc1`, the IC50 in data set [22] was over 100 µM; in [23] it was 64 µM; in [24] it was over 100 µM; in data set [20] it was over 100 µM.
`Fc1cccc(COc2ccc(Nc3ncnc4cc(N5CCOCC5)c(F)cc34)cc2Cl)c1`: the IC50 in data set [22] was 57.5 µM; in [23] it was 10.1 µM; in data set [24] it was 52.6 µM; in data set [20], 71.8 µM.
For the compound `COc1cc2ncnc(Nc3ccc(F)c(Cl)c3)c2cc1OCCCN1CCOCC1` [GEFITINIB], the Activity in data set [25] turned out to be 7.93%; in [26] it was 7.86%; in [27], 16.98%; in [28] it was 5.95%; in [29] it was 76.94%; in [30] it was 0.95%. Besides, in data set [31], the viability at 20 µM is 83.3%.
As for `Fc1ccc(Nc2ncnc3cc(N4CCOCC4)c(F)cc23)cc1Cl`, the half-inhibitory concentration (IC50) is over 100 µM in data set [22], 85.6 µM in data set [23], over 100 µM in [24] and over 100 µM in data set [20].
